Experimental data: patent publication US10975077B2 (Novira Therapeutics, Inc., priority 2016, dated 2021)

system: HBV (encapsidated HBV DNA, HepG2.2.15 cells); experiment: HBV replication inhibition assay, BDNA assay in HepG2.2.15 cells; format: cell-based; settings: Activity in BDNA-assay
Procedure: HBV replication inhibition by the disclosed compounds were determined in cells infected or transfected with HBV, or cells with stably integrated HBV, such as HepG2.2.15 cells (Sells et al. 1987). In this example, HepG2.2.15 cells were maintained in cell culture medium containing 10% fetal bovine serum (FBS), Geneticin, L-glutamine, penicillin and streptomycin. HepG2.2.15 cells were seeded in 96-well plates at a density of 40,000 cells/well and were treated with serially diluted compounds at a final DMSO concentration of 0.5% either alone or in combination by adding drugs in a checker box format. Cells were incubated with compounds for three days, after which medium was removed and fresh medium containing compounds was added to cells and incubated for another three days. At day 6, supernatant was removed and treated with DNase at 37° C. for 60 minutes, followed by enzyme inactivation at 75° C. for 15 minutes. Encapsidated HBV DNA was released from the virions and covalently linked HBV polymerase by incubating in lysis buffer (Affymetrix QS0010) containing 2.5 μg proteinase K at 50° C. for 40 minutes. HBV DNA was denatured by addition of 0.2 M NaOH and detected using a branched DNA (BDNA) QuantiGene assay kit according to manufacturer recommendation (Affymetrix). HBV DNA levels were also quantified using qPCR, based on amplification of encapsidated HBV DNA extraction with QuickExtraction Solution (Epicentre Biotechnologies) and amplification of HBV DNA using HBV specific PCR probes that can hybridize to HBV DNA and a fluorescently labeled probe for quantitation. In addition, cell viability of HepG2.2.15 cells incubated with test compounds alone or in combination was determined by using CellTitre-Glo reagent according to the manufacturer protocol (Promega). The mean background signal from wells containing only culture medium was subtracted from all other samples, and percent inhibition at each compound concentration was calculated by normalizing to signals from HepG2.2.15 cells treated with 0.5% DMSO using equation E1. % inhibition=(DMSOave−Xi)/DMSOave×100% E1: where DMSOave is the mean signal calculated from the wells that were treated with DMSO control (0% inhibition control) and Xi is the signal measured from the individual wells. EC50 values, effective concentrations that achieved 50% inhibitory effect, were determined by non-linear fitting using Graphpad Prism software (San Diego, Calif.) and equation E2: Y=Y min+(Y max −Y min)/(1+10(Log EC50−X)×HillSlope) E2: […]
where Y represents percent inhibition values and X represents the logarithm of compound concentrations.
Selected disclosed compounds were assayed in the HBV replication assay (BDNA assay), as described above and a representative group of these active compounds is shown in Table 6.

C[C@@H]1Cc2nn3c(c2CN1C(=O)Nc1ccc(F)c(Cl)c1)C(=O)N(CC(F)F)CC(CO)C3 (single isomer, unassigned) [Compound 092_D2, (3R,8 S*)—N-(3-chloro-4-fluorophenyl)-10-(2,2-difluoroethyl)-8-(hydroxymethyl)-3-methyl-11-oxo-1,3,4,7,8,9,10,11-octahydro-2H-pyrido[4′,3′:3,4]pyrazolo[1,5-a][1,4]diazepine-2-carboxamide] and CCC(O)C1CN(C)C(=O)c2c3c(nn2C1)CCN(C(=O)Nc1ccc(F)c(C(F)(F)F)c1)C3 (single isomer, unassigned) [Compound 099_E1, (R*)—N-(4-fluoro-3-(trifluoromethyl)phenyl)-8-((S*)-1-hydroxypropyl)-10-methyl-11-oxo-1,3,4,7,8,9,10,11-octahydro-2H-pyrido[4′,3′:3,4]pyrazolo[1,5-a][1,4]diazepine-2-carboxamide] fall in the same range of EC50: 1 to 100 nM for the first, 1 to 100 nM for the second.

First: CCC(O)C1CN(C)C(=O)c2c3c(nn2C1)CCN(C(=O)Nc1cc(Cl)c(F)cc1F)C3 (single isomer, unassigned) [Compound 096_E3, (S*)—N-(5-chloro-2,4-difluorophenyl)-8-((S*)-1-hydroxypropyl)-10-methyl-11-oxo-1,3,4,7,8,9,10,11-octahydro-2H-pyrido[4′,3′:3,4]pyrazolo[1,5-a][1,4]diazepine-2-carboxamide]
Second: CCC(O)C1CN(C)C(=O)c2c3c(nn2C1)CCN(C(=O)Nc1ccc(F)c(C#N)c1F)C3 (single isomer, unassigned) [Compound 098_E1, (R*)—N-(3-cyano-2,4-difluorophenyl)-8-((S*)-1-hydroxypropyl)-10-methyl-11-oxo-1,3,4,7,8,9,10,11-octahydro-2H-pyrido[4′,3′:3,4]pyrazolo[1,5-a][1,4]diazepine-2-carboxamide]
The EC50 of the first is higher: 100 to 500 nM for the first, 1 to 100 nM for the second. The second is the more potent here.

Compared with CCC(O)C1CN(C)C(=O)c2c3c(nn2C1)CCN(C(=O)Nc1ccc(F)c(C#N)c1)C3 (single isomer, unassigned) [Compound 097_E1, (R*)—N-(3-cyano-4-fluorophenyl)-8-((S*)-1-hydroxypropyl)-10-methyl-11-oxo-1,3,4,7,8,9,10,11-octahydro-2H-pyrido[4′,3′:3,4]pyrazolo[1,5-a][1,4]diazepine-2-carboxamide], CCC(O)C1CN(C)C(=O)c2c3c(nn2C1)CCN(C(=O)Nc1ccc(F)c(C(F)(F)F)c1)C3 (single isomer, unassigned) [Compound 099_E2, (S*)—N-(4-fluoro-3-(trifluoromethyl)phenyl)-8-((R*)-1-hydroxypropyl)-10-methyl-11-oxo-1,3,4,7,8,9,10,11-octahydro-2H-pyrido[4′,3′:3,4]pyrazolo[1,5-a][1,4]diazepine-2-carboxamide] is higher in EC50: 1 to 100 nM for the first, 100 to 500 nM for the second.

First: CCC(O)C1CN(C)C(=O)c2c3c(nn2C1)CCN(C(=O)Nc1ccc(F)c(C#N)c1)C3 (single isomer, unassigned) [Compound 097_E2, (S*)—N-(3-cyano-4-fluorophenyl)-8-((R*)-1-hydroxypropyl)-10-methyl-11-oxo-1,3,4,7,8,9,10,11-octahydro-2H-pyrido[4′,3′: 3,4]pyrazolo[1,5-a][1,4]diazepine-2-carboxamide]
Second: CCC(O)C1CN(C)C(=O)c2c3c(nn2C1)CCN(C(=O)Nc1ccc(F)c(C(F)(F)F)c1)C3 (single isomer, unassigned) [Compound 099_E3, (S*)—N-(4-fluoro-3-(trifluoromethyl)phenyl)-8-((S*)-1-hydroxypropyl)-10-methyl-11-oxo-1,3,4,7,8,9,10,11-octahydro-2H-pyrido[4′,3′:3,4]pyrazolo[1,5-a][1,4]diazepine-2-carboxamide]
The EC50 of the first is higher: 100 to 500 nM for the first, 1 to 100 nM for the second. The second is the more potent here.

CCC(O)C1CN(C)C(=O)c2c3c(nn2C1)CCN(C(=O)Nc1ccc(F)c(C#N)c1)C3 (single isomer, unassigned) [Compound 097_E3, (S*)—N-(3-cyano-4-fluorophenyl)-8-((S*)-1-hydroxypropyl)-10-methyl-11-oxo-1,3,4,7,8,9,10,11-octahydro-2H-pyrido[4′,3′: 3,4]pyrazolo[1,5-a][1,4]diazepine-2-carboxamide] and CCC(O)C1CN(C)C(=O)c2c3c(nn2C1)CCN(C(=O)Nc1ccc(F)c(C(F)(F)F)c1)C3 (single isomer, unassigned) [Compound 099_E4, (R*)—N-(4-fluoro-3-(trifluoromethyl)phenyl)-8-((R*)-1-hydroxypropyl)-10-methyl-11-oxo-1,3,4,7,8,9,10,11-octahydro-2H-pyrido[4′,3′:3,4]pyrazolo[1,5-a][1,4]diazepine-2-carboxamide] fall in the same range of EC50: 100 to 500 nM for the first, 100 to 500 nM for the second.

First: CCC(O)C1CN(C)C(=O)c2c3c(nn2C1)CCN(C(=O)Nc1ccc(F)c(C#N)c1)C3 (single isomer, unassigned) [Compound 097_E4, (R*)—N-(3-cyano-4-fluorophenyl)-8-((R*)-1-hydroxypropyl)-10-methyl-11-oxo-1,3,4,7,8,9,10,11-octahydro-2H-pyrido[4′,3′: 3,4]pyrazolo[1,5-a][1,4]diazepine-2-carboxamide]
Second: CCC(O)C1CN(C)C(=O)c2c3c(nn2C1)CCN(C(=O)Nc1ccc(F)c(C#N)c1F)C3 (single isomer, unassigned) [Compound 098_E2, (S*)—N-(3-cyano-2,4-difluorophenyl)-8-((R*)-1-hydroxypropyl)-10-methyl-11-oxo-1,3,4,7,8,9,10,11-octahydro-2H-pyrido[4′,3′:3,4]pyrazolo[1,5-a][1,4]diazepine-2-carboxamide]
The EC50 of the first is lower: 1 to 100 nM for the first, 500 to 1000 nM for the second.

Compound CCC(O)C1CN(C)C(=O)c2c3c(nn2C1)CCN(C(=O)Nc1ccc(F)c(C#N)c1F)C3 (single isomer, unassigned) [Compound 098_E3, (S*)—N-(3-cyano-2,4-difluorophenyl)-8-((S*)-1-hydroxypropyl)-10-methyl-11-oxo-1,3,4,7,8,9,10,11-octahydro-2H-pyrido[4′,3′:3,4]pyrazolo[1,5-a][1,4]diazepine-2-carboxamide] has an EC50 of 100 to 500 nM.
CCC(O)C1CN(C)C(=O)c2c3c(nn2C1)CCN(C(=O)Nc1ccc(F)c(C#N)c1F)C3 (single isomer, unassigned) [Compound 098_E4, (R*)—N-(3-cyano-2,4-difluorophenyl)-8-((R*)-1-hydroxypropyl)-10-methyl-11-oxo-1,3,4,7,8,9,10,11-octahydro-2H-pyrido[4′,3′:3,4]pyrazolo[1,5-a][1,4]diazepine-2-carboxamide] was tested, and the EC50 was 500 to 1000 nM.

same assay, conditions: Hepatitis B virus, HepG2.2.15, Activity in BDNA-assay

First: CC[C@H](O)[C@@H]1CN(C)C(=O)c2c3c(nn2C1)CCN(C(=O)Nc1cc(Cl)c(F)cc1F)C3 (single isomer, unassigned) [Compound 096_E1, (R*)—N-(5-chloro-2,4-difluorophenyl)-8-((S*)-1-hydroxypropyl)-10-methyl-11-oxo-1,3,4,7,8,9,10,11-octahydro-2H-pyrido[4′,3′:3,4]pyrazolo[1,5-a][1,4]diazepine-2-carboxamide]
Second: CCC(O)C1CN(C)C(=O)c2c3c(nn2C1)CCN(C(=O)Nc1cc(Cl)c(F)cc1F)C3 (single isomer, unassigned) [Compound 096_E2, (S*)—N-(5-chloro-2,4-difluorophenyl)-8-((R*)-1-hydroxypropyl)-10-methyl-11-oxo-1,3,4,7,8,9,10,11-octahydro-2H-pyrido[4′,3′:3,4]pyrazolo[1,5-a][1,4]diazepine-2-carboxamide]
The EC50 of the first is lower: 1 to 100 nM for the first, 100 to 500 nM for the second. The first is the more potent here.

CCC(O)C1CN(C)C(=O)c2c3c(nn2C1)CCN(C(=O)Nc1ccc(F)c(Cl)c1F)C3 (single isomer, unassigned) [Compound 100_E1, (R*)—N-(3-chloro-2,4-difluorophenyl)-8-((S*)-1-hydroxypropyl)-10-methyl-11-oxo-1,3,4,7,8,9,10,11-octahydro-2H-pyrido[4′,3′:3,4]pyrazolo[1,5-a][1,4]diazepine-2-carboxamide] and CCC(O)C1CN(C)C(=O)c2c3c(nn2C1)CCN(C(=O)Nc1ccc(F)c(Br)c1F)C3 (single isomer, unassigned) [Compound 101_E1, (R*)—N-(3-bromo-2,4-difluorophenyl)-8-((S*)-1-hydroxypropyl)-10-methyl-11-oxo-1,3,4,7,8,9,10,11-octahydro-2H-pyrido[4′,3′:3,4]pyrazolo[1,5-a][1,4]diazepine-2-carboxamide] fall in the same range of EC50: 1 to 100 nM for the first, 1 to 100 nM for the second.

For CCC(O)C1CN(C)C(=O)c2c3c(nn2C1)CCN(C(=O)Nc1ccc(F)c(C(F)(F)F)c1F)C3 (single isomer, unassigned) [Compound 103_E1, (R*)—N-(2,4-difluoro-3-(trifluoromethyl)phenyl)-8-((S*)-1-hydroxypropyl)-10-methyl-11-oxo-1,3,4,7,8,9,10,11-octahydro-2H-pyrido[4′,3′:3,4]pyrazolo[1,5-a][1,4] diazepine-2-carboxamide], the EC50 was 1 to 100 nM.
